Measurements: patent US20060052413A1, “Novel piperidine derivatives as modulators of chemokine receptor ccr5” (priority 2002, published 2006)
pIC50: −log10 of the molar value.

Target: recombinant human CCR5 receptor (Homo sapiens, UniProt P51681)
Test: MIP-1α radioligand binding assay (scintillation proximity), CHO cell membranes
Settings: displacement of 0.1 nM iodinated MIP-1α; negative log10 of IC50; average if tested more than once
Protocol: The ability of compounds to inhibit the binding of MIP-1α was assessed by an in vitro radioligand binding assay. Membranes were prepared from Chinese hamster ovary cells which expressed the recombinant human CCR5 receptor. These membranes were incubated with 0.1 nM iodinated MIP-1α, scintillation proximity beads and various concentrations of the compounds of the invention in 96-well plates. The amount of iodinated MIP-1α bound to the receptor was determined by scintillation counting. Competition curves were obtained for compounds and the concentration of compound which displaced 50% of bound iodinated MIP-1α was calculated (IC50).
In Table II the results are presented as Pic50 values. A Pic50 value is the negative log (to base 10) of the IC50 result, so an IC50 of 1 μM (that is 1×10^−6M) gives a Pic50 of 6. If a compound was tested more than once then the data below is an average of the probative tests results.

Sequence of recombinant human CCR5 receptor (P51681 whole entry): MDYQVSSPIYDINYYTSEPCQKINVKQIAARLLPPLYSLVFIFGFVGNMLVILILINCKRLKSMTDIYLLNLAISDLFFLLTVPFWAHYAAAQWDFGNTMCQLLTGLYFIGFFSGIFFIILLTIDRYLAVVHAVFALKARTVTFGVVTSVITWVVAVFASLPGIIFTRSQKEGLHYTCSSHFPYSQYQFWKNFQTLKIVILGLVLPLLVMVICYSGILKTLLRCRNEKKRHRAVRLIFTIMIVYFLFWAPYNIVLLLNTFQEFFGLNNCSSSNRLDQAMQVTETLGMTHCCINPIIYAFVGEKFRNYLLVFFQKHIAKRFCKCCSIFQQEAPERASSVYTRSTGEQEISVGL

SMILES: CCS(=O)(=O)N1CCN(C(CCN2CCC(CCCc3ccccc3)CC2)c2ccccc2)CC1 (stereo not shown) [Compound 3]
- pIC50: 7.01
